# In EP2016954A1, “Antibodies against 4-(methylnitrosamino)-1-(3-pyridyl)-1-butanone and metabolites thereof” (Muller, Claude P., priority 2007, dated 2009):
# Where “and” joins values, the source holds several entries; their conditions need not be identical. Equal entries are not always repeated.
# Legend:
# P9D5 = assay: Competition ELISA with mAb P9D5 on immobilized [NNK-C2]-OVA; assay type: binding, mouse; details: for IC50: competitor inhibiting binding of P9D5 to [NNK-C2]-OVA; for IC50 compared with the one of NNK: P9D5, result in words; for inhibition of P9D5 binding: competition ELISA, result in words
# Procedure: (§1) In all competition experiments, optimal antigen coating conditions and serum dilutions were determined by direct ELISA. 384-well plates were coated with the minimal amount of antigen required for maximal signal. Sera or mAb supernatants were diluted to obtain 70% binding and a signal of 1.0 to 1.5 O.D. at 0% competition (highest signal). The competitors (NNK and its metabolites (NNAL, NNK-N-ox, NNAL-N-ox, keto acid (1-(3-pyridyl)-1-butanone-4-carboxylic acid), PBCA (1-(3-pyridyl)-1-butanol-4-carboxylic acid), PB (1-(3-pyridyl)-1-butanediol) and HPB (4-hydroxy-1-(3-pyridyl)-1-butanone)), from Toronto Research Chemicals Inc., Canada and Acros Organics, Geel, Belgium) were resuspended in 100% dimethylsulfoxide and stock solutions of […] were frozen at -80°C. Competitors were mixed 1:1 with sera or mAb supernatants to final concentrations of 0 to 512 µM for mAbs or 0 to 1024 µM for serum. Zero (highest signal) and 100% competition (background signal) were determined using no or NNK-C2 as competitor. The difference between these two values corresponds to the dynamic range of the assay. For each competitor concentration, the 50% of inhibitory concentration, IC50 was calculated. Experiments were independently repeated three times and data were analyzed used SigmaStat software. Net OD was calculated by subtraction of the relevant background as described in each figure.
# P7H3 = assay: Competition ELISA with mAb P7H3; assay type: binding, mouse; details: for IC50: competitor inhibiting binding of P7H3; for inhibition of P7H3 binding: competition ELISA, result in words
# Procedure: as §1
# P9D5 and P7H3 = assay: Competition ELISA, results stated jointly for both mAbs; assay type: binding, mouse; details: for IC50: range over P9D5 and P7H3; for binding of the antibodies: N-oxidation of the pyridyl ring, result in words
# Procedure: as §1
# anti-[NNK-C2]-DT sera = assay: Competition ELISA with mouse sera on coated [NNK-C2]-OVA; assay type: binding, BALB/c mice; details: for IC50: competitor inhibiting binding of serum antibodies to coated [NNK-C2]-OVA; for specific reactivity of mouse sera: competition ELISA
# Procedure: Specific antibodies were monitored after each injection of [NNK-C2]-DT. […] NNK-specific antibodies were monitored by competition ELISA by adding increasing concentrations of NNK as competitors (0-256µM) (Figure 1) to measure their capacity to inhibit the binding of serum antibodies to coated [NNK-C2]-OVA.
# as §1
# NCI-H82 cells = assay: NNK-induced proliferation of NCI-H82 cells (ATP bioluminescence); assay type: cell-based, human; details: NNK 25 nM, 24h
# Procedure: NCI-H82 cells were obtained from European Collection of Cell Cultures and maintained in RPMI 1640 with 2 mM L-glutamine (Biowhittaker, Verviers, BE) with the above supplements ("NCI-H82 medium"). Every 2 or 3 days cell medium was renewed. Cells were subcultured once a week. All cultures were mycoplasma-free.
# For proliferation experiments, NCI-H82 cells were seeded at a concentration of about 8 x 10^3 cells/well in 200 µl of NCI-H82 medium on collagen type I coated 96-well plates (Greiner Bio-one, Wemmel, BE) and incubated at 37°C and 10% CO2. Proliferation assays were performed at 10% CO2 since CO2 seems to act as a potent messenger molecule for SCLC cells, enhancing the susceptibility of this cancer cell to a host of autocrine and paracrine growth-stimulating signals. After 18h, medium was replaced by fresh NCI-H82 medium containing only 0.15% heat-inactivated fetal bovine serum ("low serum medium") 6h prior NNK treatment. Stock solutions of NNK were prepared in dimethyl sulfoxide. […] Cell proliferation was assessed 24h after treatment using the ViaLightTM HS kit according to the manufacturer's instructions (Cambrex Bioscience, Verviers, BE). Bioluminescence of ATP present in metabolically active cells, was measured on a GENios Plus fluorescence plate reader (Tecan, Mechelen, BE). […]
Structure (SMILES),IC50 (P9D5),IC50 (P9D5 and P7H3) [µM],inhibition of P7H3 binding (P7H3),IC50 (anti-[NNK-C2]-DT sera) [µM],also measured
Cc1cccnc1 [3-picoline],400 µM,,,,IC50 (P7H3): 320 µM
"CCOC(=O)c1cccnc1 [ENAT, ethylnicotinate]",49 µM,49 to 80,,,IC50 (P7H3): 80 µM
"O=C(CCCO)c1cccnc1 [HPB, 4-hydroxy-1-(3-pyridyl)-1-butanone]",50 µM,,moderately inhibited,80,
"O=C(O)c1ccc[n+]([O-])c1 [NIA-N-Ox, nicotinic acid-N-oxide]",,,,,binding of the antibodies (P9D5 and P7H3): totally obliterates binding
"CN(CCCC(O)c1cccnc1)N=O (centres unmarked) [NNAL, 4-(methylnitrosamino)-1-(3-pyridyl)-1-butanol]",20 µM,29 to 93,,80,
"CN(CCCC(O)c1ccc[n+]([O-])c1)N=O (centres unmarked) [NNAL-N-Ox, 4-(methylnitrosamino)-1-(3-pyridyl-N-oxide)-1-butanol]",,,,,binding of the antibodies (P9D5 and P7H3): totally obliterates binding; specific reactivity of mouse sera (anti-[NNK-C2]-DT sera): essentially no specific reactivity was detected
"CN(CCCC(=O)c1cccnc1)N=O [NNK, 4-(methylnitrosamino)-1-(3-pyridyl)-1-butanone]",63 µM and 80 µM,80 to 160,,26,increase of cell number in comparison to unstimulated control cells (NCI-H82 cells): 2 to 3 fold; IC50 (P7H3): 160 µM
"NCCN(CCCC(=O)c1cccnc1)N=O [NNK-C2, 4-[2-amino-ethyl(nitrosamino)]-1-pyridine-3-yl-butane-1-one]",3.7 µM,4.4 to 12,,,
"CN(CCCC(=O)c1ccc[n+]([O-])c1)N=O [NNK-N-Ox, 4-(methylnitrosamino)-1-(3-pyridyl-N-oxide)-1-butanone]",,,,,binding of the antibodies (P9D5 and P7H3): totally obliterates binding; specific reactivity of mouse sera (anti-[NNK-C2]-DT sera): essentially no specific reactivity was detected
"OCCCC(O)c1cccnc1 (centres unmarked) [PB, 1-(3-pyridyl)-1-butanediol]",72 µM,,moderately inhibited,230,
"O=C(O)CCC(O)c1cccnc1 (centres unmarked) [PBCA, 1-(3-pyridyl)-1-butanol-4 carboxylic acid]",,,moderately inhibited,,IC50 compared with the one of NNK (P9D5): significant increase of the IC50; inhibition of P9D5 binding (P9D5): moderate inhibition
"O=C(O)CCC(=O)c1cccnc1 [keto acid, 1-(3-pyridyl)-1-butanone-4 carboxylic acid]",,,moderately inhibited,,IC50 compared with the one of NNK (P9D5): significant increase of the IC50; inhibition of P9D5 binding (P9D5): moderate inhibition
